Where a SMILES comes first, the peptide text is derived from it.
Columns and labels:
[1] = system: human cardiac fibroblasts; test: MTT cell viability assay, cardiac fibroblasts; format: cell-based; conditions: 0.24 µg/mL, 24 h, n = 7-8
Experimental: To access cell viability and proliferation in response to the liposome-peptide, Thiazolyl Blue Tetrazolium Bromide (MTT; Sigma-Aldrich, M2128) assay was performed. Briefly, human cardiac fibroblasts (Lifeline Cell Technology, San Diego, CA, USA #FC-0060) and RAW macrophages were plated into 96-well plates at a density of 8000–10,000 cells/well. After 24 h, cells were serum-starved overnight, followed by incubation in empty liposomes and PBS (L-PBS), L-Ac-SDKP (0.24 µg/mL), or Ac-SDKP (0.24 µg/mL) for an additional 24 h. After this, the media were replaced, and the cells were incubated in the MTT substrate for 3.5 h at 37 °C. The yellow-orange colored product, a stable soluble formazan, was quantified at 450 nm using a microplate reader. Relative viability was calculated in relation to the cells treated with culture media alone as a control.

[2] = system: primary mouse cardiac fibroblasts; test: Cellular uptake by flow cytometry, cardiac fibroblasts; format: cell-based; conditions: FITC-labeled peptide 0.24 µg/mL, 4 h, mean ± SD, n = 4
Experimental: Cellular uptake of L-Ac-SDKP was assessed in mouse cardiac fibroblasts and macrophages. Briefly, cultured macrophages (RAW 264.7 cells, ATCC) and primary mouse cardiac fibroblasts were incubated with L-Ac-SDKP or free peptides (Ac-SDKP) at a concentration of 0.24 µg/mL. For the intracellular distribution assay, cells were cultured on sterile coverslips, incubated with Ac-SDKP or L-Ac-SDKP for 4 h, fixed with 4% paraformaldehyde, mounted, and imaged using a fluorescence microscope (Zeiss LSM 800 laser scanning microscope) at ×400 magnification. For quantification of the peptide uptake, cells were detached and examined with a BD Accuri C6-Plus flow cytometer and further analyzed by FCS Express 6-De Novo software, […].

[3] = rapid breakdown by angiotensin-converting enzymes; cited from earlier work
Excerpt: (a) Schematic representation of free Ac-SDKP, a liposome (a lipid bilayer nanoparticle), and L-Ac-SDKP (Ac-SDKP inside the liposome). (b,c) Representative graphs of liposome size distribution and zeta potential, respectively, by nanoparticle tracking analysis. Comparative data for empty liposome (L-PBS) and L-Ac-SDKP for (d) size, (e) polydispersity, and (f) zeta potential. (g), Ac-SDKP concentration in the liposomal formulations (L-PBS vs. L-Ac-SDKP). Cryo-TEM images of L-Ac-SDKP (h) and empty liposome (L-PBS) (i) and a comparative data for size (j). Scale ...

- percentage of FITC-positive cardiac fibroblasts (uptake) [2]: 8.5% ± 2.96
Structure (SMILES): CC(=O)N[C@@H](CO)C(=O)N[C@@H](CC(=O)O)C(=O)N[C@@H](CCCCN)C(=O)N1CCC[C@H]1C(=O)O [Ac-SDKP, N-acetyl-ser-asp-lys-pro] (Ac-SDKP-OH)
- percent cell viability, cardiac fibroblasts [1]: did not affect percent cell viability
- plasma half-life [3]: 4.5 min
